In patent publication US20090264664A1, “PREPARATION FOR EXTERNAL APPLICATION COMPRISING SALT OF MAST CELL DEGRANULATION INHIBITOR HAVING CARBOXYL GROUP WITH ORGANIC AMINE” (MEDRX CO., LTD., priority 2005, published 2009):

Assay: Solubility of tranilast in various solvents with or without triisopropanolamine (Example 3)
Format: physicochemical
Parameters: key: ∘: complete dissolution of tranilast; x: no dissolution of tranilast
Conditions: tranilast 1 wt %
Method: For preparation of test solutions (blending corresponding to 1 mol of triisopropanolamine), tranilast (1 wt %) and triisopropanolamine (0.56 wt %) were added, and glycerol, propylene glycol, butylene glycol, salicylic acid ethylene glycol, diethyl sebacate and isopropyl myristate were used as a balance to achieve 100 wt %, whereby each test solution was prepared.
For preparation of comparison control (without triisopropanolamine), tranilast (1 wt %) was added, and propylene glycol, salicylic acid ethylene glycol, diethyl sebacate and isopropyl myristate were used as a balance to achieve 100 wt %, whereby each test solution was prepared.
Using the test solutions and comparative controls prepared above, the solubility of tranilast in various solvents with or without triisopropanolamine was examined.

## CC(O)CN(CC(C)O)CC(C)O.COc1ccc(/C=C/C(=O)Nc2ccccc2C(=O)O)cc1OC [1:1 salt with triisopropanolamine]
Butylene glycol
  solubility of tranilast in solvent: ∘
Diethyl sebacate
  solubility of tranilast in solvent: ∘
glycerol
  solubility of tranilast in solvent: ∘
Isopropyl myristate
  solubility of tranilast in solvent: x
Propylene glycol
  solubility of tranilast in solvent: ∘
Salicyl acid ethylene glycol
  solubility of tranilast in solvent: ∘
